In paper PMC8757452 (ACS Omega, 2021):
≈ marks a conversion by molar mass, not a printed value.

Experiments:
T. cruzi epimastigotes [1] = details: ref [14], cited from earlier work
T. cruzi (K-98 clone) = assay: In vivo trypanocidal activity, murine model of Chagas disease; parameters: species or system BALB/c mice; details: 1 mg/kg/day i.p.
T. cruzi epimastigotes [2] = assay: T. cruzi epimastigotes growth inhibition, [3H] thymidine uptake assay; assay type: cell-based, Trypanosoma cruzi; details: for IC50: 72 h, read-out: IC50 (μg/mL) ± SD on T. cruzi epimastigotes; for SI (selectivity index, relation between CC50 and IC50): CC50 splenocytes / IC50 epimastigotes
HeLa cells = details: read-out: IC50, cytotoxicity on HeLa cells, ref [28]; cited from earlier work

**Q.** Which IC50 of komaroviquinone (T. cruzi epimastigotes [1]; T. cruzi epimastigotes) does the source give for `COC1=C(C(C)C)C(=O)C2=C(C[C@@]34CCCC(C)(C)[C@@H]3C[C@]2(O)O4)C1=O` [K, Komaroviquinone] here?
**A.** a Komaroviquinone IC50 = 1.00 μg/mL ref ([14]).

**Q.** What about the “log (1/IC50) of komaroviquinone” value (T. cruzi epimastigotes [1]; from IC50 = 1.00 μg/mL, IC50 in molar) of the same compound?
**A.** 5.43

**Q.** What does the source list for `O=C(Cn1ccnc1[N+](=O)[O-])NCc1ccccc1` [benznidazole]?
**A.** area under the parasitemia curve (AUC) (T. cruzi (K-98 clone); days 11-15 post-infection): 4; sterile cure (T. cruzi (K-98 clone); five days): neither Bz was able to cure; IC50 (T. cruzi epimastigotes [2]; Trypanosoma cruzi): 1 ± 0.62 µg/mL (≈ 3.84 µM)

**Q.** For `C=C1C(=O)O[C@@H]2C[C@@H](C)[C@@H]3C=CC(=O)[C@@]3(C)[C@@H](O)[C@H]12` [compound 10, helenalin], which “SI (selectivity index, relation between CC50 and IC50)” value (T. cruzi epimastigotes [2]) is on record?
**A.** 1.1

**Q.** What about the IC50 (T. cruzi epimastigotes [2]; Trypanosoma cruzi) of the same compound?
**A.** 0.29 ± 0.05 µg/mL (≈ 1.11 µM)

**Q.** And the inhibition at 1.5 µg/mL (T. cruzi epimastigotes [2]; Trypanosoma cruzi, read-out: inhibition of parasite replication)?
**A.** 66%

**Q.** Which “SI (selectivity index, relation between CC50 and IC50)” value (T. cruzi epimastigotes [2]) does the source give for `C=C1C(=O)O[C@@H]2[C@H]1CC[C@H](C)[C@@]1(O)C=CC(=O)[C@@]21C` [compound 14, hymenin] here?
**A.** 0.8

**Q.** And the IC50 (T. cruzi epimastigotes [2]; Trypanosoma cruzi)?
**A.** 1.5 ± 0.09 µg/mL (≈ 5.72 µM)

**Q.** For `C=C1C[C@H](O)[C@H](Br)C(C)(C)[C@@]12CCC(C)=C(Cl)C2` [elatol], which IC50 (HeLa cells) is on record?
**A.** 1300 nM
